Data set [1] can be described thus: Pharmacokinetics after oral gavage or intravenous injection. The settings on record: after a single oral dose. It counts as in vivo, CD1 mice. The procedure:
Cohorts of N=12 athymic mice bearing human PCa PC3-M cell orthotopic implants (a), or of N=5 non-tumor bearing athymic mice (b), were treated with KBU2046 incorporated into chow, and resultant lung metastasis (a) or plasma KBU2046 concentration (b) measured. Values are the mean±SEM. The relationship between dose and metastasis was evaluated by two-sided ANOVA (a). FIG. 2c a comprehensive characterization of KBU2046 pharmacokinetics. CD1 mice were dosed with 100 mg KBU2046/kg via oral gavage or intravenous injection (iv), and blood collected at the indicated time points (data from mice dosed at 25 mg/kg are in FIG. 12, and corroborate 100 mg/kg findings). For each route and time point, N=3 mice were sampled. Individual data points are the resultant plasma concentrations from individual mice, and are the mean of N=2 measurements. The dotted horizontal line denotes a concentration of 24 nM, which was the concentration of KBU2046 measured in the blood of mice whose metastasis were suppressed by 92% (a-b). […]
KBU2046 Quantification and Pharmacokinetics. […]
Plasma KBU2046 concentrations were measured in duplicate by liquid chromatography-tandem mass spectrometry after sample preparation by solid-phase extraction. […] The mass-to-charge ratios of the precursor-to-product ion reactions monitored were 243.5→125.1 for KBU2046 and 257.0→165.0 for the internal standard. […]

Data set [2] concerns estrogen-responsive genes in MCF-7 cells. In words: Induction of estrogen-responsive genes (qRT/PCR). It counts as cell-based, human. From the text: FIG. 1a is a schematic flow of probe synthesis and development strategy. […] Values are mean±SEM of a single experiment in replicates of N=4, with similar findings in multiple separate experiments (also N=4). […] Values are mean±SEM of a single experiment in replicates of N=24, with similar findings in a separate experiment (also N=24). *Denotes Student's t test P value <0.05, compared to controls. […] Values are mean±SEM from N>2 separate experiments, each in replicates of N=3. […] Values are the mean±SD number of total, CFU-GM, CFU-GEMM or BFU-E colonies at 14 days after treatment with KBU2046, from a single experiment in replicates of N=2. […] Values are the mean±SD of a single experiment, with similar results seen in a separate experiment, both in replicates of N=2.
Quantitative Reverse Transcriptase Polymerase Chain Reaction. RNA was isolated and qRT/PCR was performed as described (Ding, Y. et al., J Biomol Tech 18, 321-30 (2007)), analyzed by the 2^−ΔΔCt method (Livak, K. J. et al., Methods 25, 402-8 (2001)), using primer/probes sets (ABI), HSP90α (Hs00743767_sH), HSP90β (Hs00427665_g1), trefoil factor 1 (TFF1; Hs00907239 ml), cathepsin D (CTSD; Hs00157205_m1), progesterone receptor (PGR; Hs01556702 ml) and GAPDH (Hs99999905_m1). Assays were repeated, each in replicates of N=2.

SMILES strings stand for the structures.

For `O=C1c2ccccc2OCC1c1ccc(F)cc1` (racemic) [KBU2046, (±)-3(4-fluorophenyl)chroman-4-one], the “maintenance of plasma concentrations >24 nM” value in data set [1] was determined as 9.3 h. The “activation of estrogen-responsive genes” value in data set [2] was “did not activate estrogen-responsive genes”.

(Values after patent US20210293825A1, “METHODS FOR PRECISION THERAPEUTIC TARGETING OF HUMAN CANCER CELL MOTILITY AND KITS THEREOF” (UNITED STATES GOVERNMENT AS REPRESENTED BY THE DEPARTMENT …, priority 2018, published 2021).)
